Measurements: PubChem BioAssay AID2060510 (Molecular Pharmacology Branch, DTP, NCI, 2025)

System: 439559-082-T-J2-PDC spheroids viability
Assay: Anticancer human tumor 439559-082-T-J2-PDC patient-derived colon adenocarcinoma cell line growth inhibition [GQUAD]
Conditions: for IC50: curve of first compound; for viability, T/C: stronger effect = lower value
Source text: DNA G-quadruplex Stabilizer Agents in Combinations in Complex Spheroids
A high-throughput screen of multi-cell type tumor spheroids was designed to identify active combinations of DNA G-quadruplex stabilizer agents and targeted small molecules. Complex spheroids include a stromal component modeled by human endothelial cells (HUVEC) and fibroblasts modeled by human mesenchymal stem cells (MSCs). The concentration ranges selected for each drug and investigational agent were based upon clinically achievable concentrations if the clinical Cmax of the agent was known.
Compounds. The drugs and investigational agents: pidnarulex (CX-5461; NSC782164), APTO-253 (NSC789042), BRACO-19 (NSC847499), peposertib (NSC802822), ceralasertib (NSC780249), elimusertib (NSC800525), camonsertib (NSC841442), AZD-1390 (NSC803789), olaparib (NSC753686), talazoparib (NSC767125), ART-558 (NSC835418), sotorasib (NSC818433), MRTX-1133 (NSC836407), SN-38 (NSC673596), topotecan (NSC609699), etoposide (NSC141540), doxorubicin (NSC123127), gemcitabine (NSC613327), 5-fluorouracil (NSC19893), paclitaxel (NSC125973), vemurafenib (NSC761431), panobinostat (NSC761190), R-306465 (JNJ-16241199; NSC773264), adavosertib (NSC754352), TP-3654 (NSC805149), carboplatin (NSC241240), KSQ-4279 (NSC840948), and staurosporine (NSC755774) were obtained from the National Cancer Institute (NCI) Developmental Therapeutics Program Chemical Repository (34). The FDA-approved anticancer drug set is available from the NCI Developmental Therapeutics Program. […] The stock solutions were prepared in dimethyl sulfoxide (DMSO, Sigma-Aldrich, St. Louis, MO, cat. D2650) at 800-fold the tested concentration and stored at -70 degrees C prior to their use. All drugs and investigational agents were tested over a range starting from a high concentration at or near the clinical Cmax and decreasing in half-log increments. If the clinical Cmax for an agent had not been determined, the highest concentration tested was 10 microM.
2.3 Cell Culture. All cells were maintained in an incubator at 37 degrees C and 5% CO2 with 95% humidity. The PDC lines were cultured according to standard operating procedures established by the NCI PDMR. All PDCs were thawed and cultured in Matrigel-coated flasks prepared with a working solution of 1X Ham's F-12 nutrient mix, without supplementation (Invitrogen, cat. 11765054), 100 U/mL penicillin-streptomycin (Invitrogen, cat. 15140122), and 2.5% Matrigel (Corning Inc., cat. 354248) for the first three passages. The 857933-349-R-J2-PDC line was cultured in 6C/Colon 1B media, which includes advanced DMEM/F-12 (Thermo Fisher Scientific, cat. 12634028), 10 mM HEPES (Thermo Fisher Scientific, cat. 15630080), 1X GlutaMAX supplement (Thermo Fisher Scientific, cat. 35050061), 0.1 mg/mL primocin (InvivoGen, cat. ant-pm-2), 10% defined fetal bovine serum, heat inactivated (HyClone Laboratories Inc., cat. SH30070.03HI), 50% L-WRN conditioned media (ATCC, cat. CRL-3276), 1.25 mM N-Acetyl-L-cysteine (Sigma-Aldrich, cat. A9165), 10 mM nicotinamide (Sigma-Aldrich, cat. N0636), 1X B-27 supplement (Thermo Fisher Scientific, cat. 17504044), 1X N-2 supplement (Thermo Fisher Scientific, cat. 17502048), 10 microM Y-27632 dihydrochloride (Tocris Bioscience, cat. 1254), and 50 ng/mL human EGF recombinant protein (Thermo Fisher Scientific, cat. PHG0311). The 485176-168-R4-J1-PDC line was cultured in Panc media, which includes all 6C/Colon 1B media components plus 100 ng/mL human FGF-10 (Thermo Fisher Scientific, cat. 100-26), 500 nM SB-431542 (Selleckchem, cat. S1067), and gastrin (Tocris, cat. 3006).
[…]

[1] = second compound 0.0316 µM, first compound 0.0316 µM
[2] = second compound 0.0316 µM, first compound 0.316 µM
[3] = second compound 0.1 µM, first compound 0.0316 µM
[4] = second compound 0.1 µM, first compound 0.316 µM
[5] = second compound 0.316 µM, first compound 0.0316 µM
[6] = second compound 0.316 µM, first compound 0.316 µM
[7] = second compound 1 µM, first compound 0.0316 µM
[8] = second compound 1 µM, first compound 0.316 µM
[9] = second compound 3.16 µM, first compound 0.0316 µM
[10] = second compound 3.16 µM, first compound 0.316 µM
[11] = second compound 10 µM, first compound 0.0316 µM
[12] = second compound 10 µM, first compound 0.316 µM
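Also: spheroids exposed to the agents for 7 days before readout.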
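For viability, T/C in this document: percent of luminescence signal in DMSO vehicle wells taken as 100% viability.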

How did the IC50 (second compound 0.0316 µM) turn out when `CCCS(=O)(=O)Nc1ccc(F)c(C(=O)c2c[nH]c3ncc(-c4ccc(Cl)cc4)cc23)c1F` + CN(C)c1ccc(Nc2c3ccc(NC(=O)CCN4CCCC4)cc3nc3cc(NC(=O)CCN4CCCC4)ccc23)cc1 was run?
The IC50 was > 10000 nM.

And the IC50 (second compound 0.1 µM)?
Its IC50 is > 10000 nM.

And the IC50 (second compound 0.316 µM)?
Its IC50 is 9610 nM.

What about the IC50 (second compound 1 µM) of the same compound?
Its IC50 is > 10000 nM.

And the IC50 (second compound 3.16 µM)?
The IC50 was 9150 nM.

And the IC50 (second compound 10 µM)?
Its IC50 is > 10000 nM.

And the viability, T/C [1]?
The viability, T/C was 118%.

And the viability, T/C (second compound 0.0316 µM, first compound 0.1 µM)?
The viability, T/C was 93.8%.

What about the viability, T/C [2] of the same compound?
Its viability, T/C is 100%.

And the viability, T/C (second compound 0.0316 µM, first compound 1 µM)?
Its viability, T/C is 92.4%.

And the viability, T/C (second compound 0.0316 µM, first compound 3.16 µM)?
Its viability, T/C is 116%.

And the viability, T/C (second compound 0.0316 µM, first compound 10 µM)?
Its viability, T/C is 59.5%.

What about the viability, T/C [3] of the same compound?
Its viability, T/C is 90.5%.

What about the viability, T/C (second compound 0.1 µM, first compound 0.1 µM) of the same compound?
The viability, T/C was 101%.

What about the viability, T/C [4] of the same compound?
Its viability, T/C is 96.7%.

What about the viability, T/C (second compound 0.1 µM, first compound 1 µM) of the same compound?
The viability, T/C was 87.9%.

What about the viability, T/C (second compound 0.1 µM, first compound 3.16 µM) of the same compound?
Its viability, T/C is 103%.

And the viability, T/C (second compound 0.1 µM, first compound 10 µM)?
The viability, T/C was 50.1%.

What about the viability, T/C [5] of the same compound?
Its viability, T/C is 98.4%.

And the viability, T/C (second compound 0.316 µM, first compound 0.1 µM)?
Its viability, T/C is 102%.

What about the viability, T/C [6] of the same compound?
Its viability, T/C is 94.1%.

What about the viability, T/C (second compound 0.316 µM, first compound 1 µM) of the same compound?
The viability, T/C was 102%.

And the viability, T/C (second compound 0.316 µM, first compound 3.16 µM)?
The viability, T/C was 113%.

And the viability, T/C (second compound 0.316 µM, first compound 10 µM)?
The viability, T/C was 48.1%.

And the viability, T/C [7]?
Its viability, T/C is 91.9%.

And the viability, T/C (second compound 1 µM, first compound 0.1 µM)?
The viability, T/C was 108%.

And the viability, T/C [8]?
Its viability, T/C is 103%.

What about the viability, T/C (second compound 1 µM, first compound 1 µM) of the same compound?
Its viability, T/C is 108%.

What about the viability, T/C (second compound 1 µM, first compound 3.16 µM) of the same compound?
Its viability, T/C is 107%.

What about the viability, T/C (second compound 1 µM, first compound 10 µM) of the same compound?
The viability, T/C was 54.2%.

What about the viability, T/C [9] of the same compound?
The viability, T/C was 96%.

And the viability, T/C (second compound 3.16 µM, first compound 0.1 µM)?
The viability, T/C was 101%.

And the viability, T/C [10]?
The viability, T/C was 108%.

What about the viability, T/C (second compound 3.16 µM, first compound 1 µM) of the same compound?
Its viability, T/C is 101%.

What about the viability, T/C (second compound 3.16 µM, first compound 3.16 µM) of the same compound?
Its viability, T/C is 112%.

And the viability, T/C (second compound 3.16 µM, first compound 10 µM)?
Its viability, T/C is 45.5%.

What about the viability, T/C [11] of the same compound?
The viability, T/C was 90.9%.

What about the viability, T/C (second compound 10 µM, first compound 0.1 µM) of the same compound?
Its viability, T/C is 103%.

What about the viability, T/C [12] of the same compound?
Its viability, T/C is 99.8%.

What about the viability, T/C (second compound 10 µM, first compound 1 µM) of the same compound?
Its viability, T/C is 105%.

And the viability, T/C (second compound 10 µM, first compound 3.16 µM)?
Its viability, T/C is 108%.

What about the viability, T/C (second compound 10 µM, first compound 10 µM) of the same compound?
The viability, T/C was 50.5%.

What does the source list for `CCc1c2c(nc3ccc(O)cc13)-c1cc3c(c(=O)n1C2)COC(=O)[C@]3(O)CC` + Cc1[nH]c2ccc(F)cc2c1-c1nc2c3cccnc3c3ncccc3c2[nH]1?
IC50 (second compound 0.0316 µM): 223 nM; IC50 (second compound 0.1 µM): > 316 nM; IC50 (second compound 0.316 µM): > 316 nM; IC50 (second compound 1 µM): 227 nM; IC50 (second compound 3.16 µM): 85.4 nM; IC50 (second compound 10 µM): 167 nM; viability, T/C (second compound 0.0316 µM, first compound 0.000999 µM): 93.4%; viability, T/C (second compound 0.0316 µM, first compound 0.00316 µM): 90.6%; viability, T/C (second compound 0.0316 µM, first compound 0.00999 µM): 88.5%; viability, T/C [1]: 78.6%; viability, T/C (second compound 0.0316 µM, first compound 0.0999 µM): 63.2%; viability, T/C [2]: 44.2%; viability, T/C (second compound 0.1 µM, first compound 0.000999 µM): 102%; viability, T/C (second compound 0.1 µM, first compound 0.00316 µM): 93.1%; viability, T/C (second compound 0.1 µM, first compound 0.00999 µM): 73.2%; viability, T/C [3]: 73.8%; viability, T/C (second compound 0.1 µM, first compound 0.0999 µM): 65.8%; viability, T/C [4]: 49.3%; viability, T/C (second compound 0.316 µM, first compound 0.000999 µM): 109%; viability, T/C (second compound 0.316 µM, first compound 0.00316 µM): 97.1%; viability, T/C (second compound 0.316 µM, first compound 0.00999 µM): 84.5%; viability, T/C [5]: 76.4%; viability, T/C (second compound 0.316 µM, first compound 0.0999 µM): 70.2%; viability, T/C [6]: 51.1%; viability, T/C (second compound 1 µM, first compound 0.000999 µM): 90.9%; viability, T/C (second compound 1 µM, first compound 0.00316 µM): 79.8%; viability, T/C (second compound 1 µM, first compound 0.00999 µM): 77.8%; viability, T/C [7]: 70.7%; viability, T/C (second compound 1 µM, first compound 0.0999 µM): 65.6%; viability, T/C [8]: 43.6%; viability, T/C (second compound 3.16 µM, first compound 0.000999 µM): 89.1%; viability, T/C (second compound 3.16 µM, first compound 0.00316 µM): 74.3%; viability, T/C (second compound 3.16 µM, first compound 0.00999 µM): 62.9%; viability, T/C [9]: 65.6%; viability, T/C (second compound 3.16 µM, first compound 0.0999 µM): 51.9%; viability, T/C [10]: 32.5%; viability, T/C (second compound 10 µM, first compound 0.000999 µM): 73%; viability, T/C (second compound 10 µM, first compound 0.00316 µM): 75.3%; viability, T/C (second compound 10 µM, first compound 0.00999 µM): 65.6%; viability, T/C [11]: 60.7%; viability, T/C (second compound 10 µM, first compound 0.0999 µM): 63.1%; viability, T/C [12]: 39%
